Measurements: patent US6211168A, “Methods for preparation and use of 1α,24 (S)-dihydroxy vitamin D2” (Bone Care International, Inc, priority 1995, dated 2001)
Like-named read-outs stand apart in the source and are kept apart here.

Assays:
[1] = biological target: T1, vitamin D receptor (VDR) (Homo sapiens, UniProt P11473); assay: vitamin D-dependent transcriptional activation: growth hormone production in transfected COS-1 cells; assay type: cell-based; conditions: inducer molar concentration 10^-9; total minus ethanol control
T1 construct: RXR partner endogenous (monkey)
T1 sequence (P11473 1-427): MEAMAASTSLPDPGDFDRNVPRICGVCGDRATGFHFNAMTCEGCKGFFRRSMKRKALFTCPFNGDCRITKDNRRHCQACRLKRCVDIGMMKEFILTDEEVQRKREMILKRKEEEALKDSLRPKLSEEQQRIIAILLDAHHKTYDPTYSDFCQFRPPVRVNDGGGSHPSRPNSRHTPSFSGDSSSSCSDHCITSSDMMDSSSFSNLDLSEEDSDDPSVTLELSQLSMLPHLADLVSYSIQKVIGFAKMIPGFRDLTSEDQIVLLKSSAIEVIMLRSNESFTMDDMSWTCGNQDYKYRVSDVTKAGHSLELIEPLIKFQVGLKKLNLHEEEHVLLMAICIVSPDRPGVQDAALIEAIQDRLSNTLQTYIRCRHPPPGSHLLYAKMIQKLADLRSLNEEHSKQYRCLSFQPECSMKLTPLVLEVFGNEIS
Protocol: The biological activity in vitro of chemically synthesized 1α,24(S)-(OH)2 D2 and 1α,24(R)-(OH)2 D2 was measured using a vitamin D-dependent transcriptional activation model system in which a vitamin D receptor (VDR)-expressing plasmid pSG5-hVDR1/3and a plasmid p(CT4)^4 TKGH containing a Growth Hormone (GH)-gene, under the control of a vitamin D-responsive element (VDRE) were co-transfected into Green monkey kidney, COS-1 cells. DNA's for these two vectors were supplied by Dr. Mark Haussler, Department of Biochemistry, University of Arizona, Tucson, Ariz.
Tranfected cells were incubated with vitamin D metabolites and growth hormone production was measured.

[2] = system: 1,25-(OH)2 D3 receptor site; conditions: Ishizuka et al., Steroids 1981, 1982; cited from earlier work
[3] = system: human osteoporotic patients; conditions: humans; cited from earlier work
[4] = blood levels of metabolites in osteoporotic women administered 1α-OH-D2; assay type: in vivo, human; conditions: one day after a single 2 μg dose of 1α-OH-D2, women
Protocol: An increase in the production of 1α,24(S)-(OH)2 D2 relative to 1α,25-(OH)2 D2 has also been observed by the present inventors in human females who received 1α-OH-D2 as part of an investigation of that drug for the treatment of osteoporosis. Following either a single dose of 2 μg of 1α-OH-D2 or daily doses of 8 μg/day for one week, blood was collected and analyzed for the metabolites 1α,24(S)-(OH)2 D2 and 1α,25-(OH)2 D2. Lipid was extracted from the blood, and the metabolites were purified by HPLC using standard methods and quantified with the radioreceptor assay produced by Incstar (Stillwater, Minn.). One day after a single 2 μg dose, the level of 1α,24(S)-(OH)2 D2 was undetectable with the 1α,25-(OH)2 D2 level being approximately 11 pg/ml. In contrast, one day following the last dose of 8 μg, the level of 1α,24(S)-(OH)2 D2 averaged 9 pg/ml with the 1α,25-(OH)2 D2 level averaging 30 pg/ml.

[5] = assay type: in vivo, rat
Protocol: Vitamin D2 or 24-OH-D2 was administered (either oral or intraperitoneal supplementation) to vitamin D-deficient rats. Lipid extracts of the plasma were prepared and the metabolites purified by the method of Horst et al. (Horst, A. L., Koszewski, N. J. and Reinhardt, T. A., Biochem., 29:578-82 (1990)) described below for synthesyzing standard biological 1α,24-(OH)2 D2.
Standard biological 1α,24-(OH)2 D2 was synthesized in vitro from 24-OH-D2 by incubating 10 μg of 24-OH-D2 in flask containing 5 ml of 20% kidney homogenates made from vitamin D-deficient chicks. The product of this reaction was isolated by HPLC and identified by mass spectrometry.

C=C1/C(=C\C=C2/CCC[C@]3(C)[C@@H]([C@H](C)/C=C/[C@](C)(O)C(C)C)CC[C@@H]23)C[C@@H](O)C[C@@H]1O [1α,24(R)-(OH)2 D2, 1α,24(R)-dihydroxy vitamin D2]
Net vitamin D-inducible GH-production [1]: 36 ng/mL

C=C1/C(=C\C=C2/CCC[C@]3(C)[C@@H]([C@H](C)CC[C@@H](O)C(C)C)CC[C@@H]23)C[C@@H](O)C[C@@H]1O [1α,24(R)-(OH)2 D3, 1α,24(R)-dihydroxyvitamin D3]
binding to the 1,25-(OH)2 D3 receptor site relative to 1,25-(OH)2 D3 [2]: more tightly than does 1,25-(OH)2 D3 itself

C=C1/C(=C\C=C2/CCC[C@]3(C)[C@@H]([C@H](C)CCCC(C)C)CC[C@@H]23)C[C@@H](O)C[C@@H]1O [1α-(OH) D3, 1α-hydroxy vitamin D3]
tolerability of dosage levels of 2.0 μg/day or greater [3]: not safely obtained

C=C1/C(=C\C=C2/CCC[C@]3(C)[C@@H]([C@H](C)/C=C/[C@H](C)C(C)C)CC[C@@H]23)C[C@@H](O)C[C@@H]1O [1α-OH-D2, 1α-hydroxy vitamin D2]
blood level of metabolite 1α,24(S)-(OH)2 D2 [4]: undetectable

C=C1CC[C@H](O)C/C1=C/C=C1\CCC[C@]2(C)[C@@H]([C@H](C)/C=C/C(C)(O)C(C)C)CC[C@@H]12 (stereo partly shown) [24-OH-D2, 24-hydroxyvitamin D2]
plasma metabolite 1α,24-(OH)2 D2 found after administration ([5]; rat, in vivo): co-migrated on HPLC with the standard 1α,24-(OH)2 D2

C=C1CC[C@H](O)C/C1=C/C=C1\CCC[C@]2(C)[C@@H]([C@H](C)/C=C/[C@H](C)C(C)C)CC[C@@H]12 [vitamin D2]
plasma metabolite 1α,24-(OH)2 D2 found after administration ([5]; vitamin D-deficient rats, oral or intraperitoneal, HPLC of plasma lipid extracts): co-migrated on HPLC with the standard 1α,24-(OH)2 D2

C=C1CC[C@H](O)C/C1=C/C=C1\CCC[C@]2(C)[C@@H]([C@H](C)CCCC(C)C)CC[C@@H]12 [vitamin D3]
24-hydroxylated metabolite in plasma after administration ([5]; comparable vitamin D-deficient rats): no detectable 24-OH-D3
